Laboratory results taken from patent US8618289B2 (Ambit Biosciences Corporation, priority 2008, dated 2013).
Like-named read-outs stand apart in the source and are kept apart here.

How the values were obtained:
[1] = test system: 290 distinct kinases tested excluding mutant variants (321 in the larger panel); conditions: no asterisk: panel of 290 distinct kinases
RAF kinases [2] = target: T1, RAF kinases (Homo sapiens, UniProt P04049); conditions: read-out: RAF1 Kd; RAF1
RAF kinases [3] = target: T2, RAF kinases (Homo sapiens, UniProt P15056); conditions: read-out: BRAF WT Kd; BRAF WT
T2 sequence (P15056 whole entry): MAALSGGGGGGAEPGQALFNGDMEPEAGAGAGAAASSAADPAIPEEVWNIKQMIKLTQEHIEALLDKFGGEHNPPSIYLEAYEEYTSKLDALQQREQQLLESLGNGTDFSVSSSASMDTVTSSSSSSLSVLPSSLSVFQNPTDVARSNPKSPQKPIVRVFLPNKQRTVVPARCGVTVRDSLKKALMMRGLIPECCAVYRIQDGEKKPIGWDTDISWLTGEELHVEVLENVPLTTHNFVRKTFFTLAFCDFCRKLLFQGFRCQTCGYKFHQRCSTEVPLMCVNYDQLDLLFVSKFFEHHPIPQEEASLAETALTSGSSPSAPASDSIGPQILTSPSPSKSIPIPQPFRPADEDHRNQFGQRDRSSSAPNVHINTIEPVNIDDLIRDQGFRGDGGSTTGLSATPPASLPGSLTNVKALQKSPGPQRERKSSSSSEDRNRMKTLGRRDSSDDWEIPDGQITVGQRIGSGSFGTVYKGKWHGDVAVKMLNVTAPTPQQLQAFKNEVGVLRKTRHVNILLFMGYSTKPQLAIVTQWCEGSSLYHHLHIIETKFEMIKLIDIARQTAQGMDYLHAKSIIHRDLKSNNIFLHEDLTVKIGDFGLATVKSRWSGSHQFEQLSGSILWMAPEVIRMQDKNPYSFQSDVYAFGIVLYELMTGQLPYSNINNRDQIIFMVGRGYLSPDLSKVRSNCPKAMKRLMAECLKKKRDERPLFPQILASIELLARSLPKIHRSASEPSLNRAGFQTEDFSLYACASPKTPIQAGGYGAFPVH

[4] = test system: MEK1 phosphorylation in the A375 human melanoma cell line; assay: cells; conditions: A-375, read-out: pMEK IC50
RAF kinases [5] = target: T3, RAF kinases (Homo sapiens, UniProt P15056, V600E); assay: biochemical
T3 sequence (P15056 whole entry V600E): as the sequence (P15056 whole entry) above, with V600E counted along it

A375 cells = assay: cells; conditions: Homo sapiens, A-375, read-out: A375 Viability EC50
RAF kinases [6] = target: T1, RAF kinases; assay: biochemical
RAF kinases [7] = target: T3, RAF kinases; conditions: read-out: BRAF V600E Kd; BRAF V600E
RAF kinases [8] = target: T2, RAF kinases; assay: biochemical

T1 sequence (P04049 whole entry): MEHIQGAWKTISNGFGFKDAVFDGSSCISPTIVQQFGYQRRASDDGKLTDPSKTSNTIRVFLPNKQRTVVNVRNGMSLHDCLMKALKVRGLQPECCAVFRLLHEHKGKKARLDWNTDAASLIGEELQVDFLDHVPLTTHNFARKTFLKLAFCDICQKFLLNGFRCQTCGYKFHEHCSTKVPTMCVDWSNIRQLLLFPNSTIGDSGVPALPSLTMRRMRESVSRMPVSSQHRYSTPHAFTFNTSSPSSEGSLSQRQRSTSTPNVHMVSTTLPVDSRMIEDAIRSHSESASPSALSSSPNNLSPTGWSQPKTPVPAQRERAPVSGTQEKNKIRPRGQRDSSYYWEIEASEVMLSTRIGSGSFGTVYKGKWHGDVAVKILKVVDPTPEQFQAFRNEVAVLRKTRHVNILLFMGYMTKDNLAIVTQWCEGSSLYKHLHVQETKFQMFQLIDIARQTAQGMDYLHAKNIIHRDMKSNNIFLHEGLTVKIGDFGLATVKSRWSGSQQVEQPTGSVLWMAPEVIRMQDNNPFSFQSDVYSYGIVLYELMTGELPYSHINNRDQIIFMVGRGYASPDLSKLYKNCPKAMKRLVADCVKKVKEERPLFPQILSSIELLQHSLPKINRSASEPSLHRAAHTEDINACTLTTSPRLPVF

SMILES	S35 [1]	Kd (RAF kinases [2]) [nM]	Kd (RAF kinases [3]) [nM]	IC50 [4] [nM]	Kd (RAF kinases [5]) [nM]	EC50 (A375 cells) [nM]	Kd (RAF kinases [6]) [nM]	Kd (RAF kinases [7]) [nM]	Kd (RAF kinases [8]) [nM]
COc1cc2ncnc(Sc3cccc(NC(=O)Nc4cc(C(C)(C)C(F)(F)F)nn4-c4ccccc4)c3)c2cc1OC [Ex 307, 1-(3-(6,7-dimethoxyquinazolin-4-ylthio)phenyl)-3-(1-phenyl-3-(1,1,1-trifluoro-2-methylpropan-2-yl)-1H-pyrazol-5-yl)urea]	D (D > 0.40)	> 1000	> 1000	< 250	250 to 500				
COc1cc2nc(Cl)nc(Oc3cccc(NC(=O)Nc4cc(C(C)(C)C)on4)c3)c2cc1OC [Ex 310, 1-(5-tert-butylisoxazol-3-yl)-3-(3-(2-chloro-6,7-dimethoxyquinazolin-4-yloxy)phenyl)urea]	A (A ≦ 0.10)		> 1000	> 1000	500 to 1000	> 1000	500 to 1000		
COc1cc2ncnc(Oc3cccc(NC(=O)Nc4cc(C(C)(F)F)nn4-c4cccnc4)c3)c2cc1OC [Ex 311, 1-(3-(1,1-difluoroethyl)-1-(pyridin-3-yl)-1H-pyrazol-5-yl)-3-(3-(6,7-dimethoxyquinazolin-4-yloxy)phenyl)urea]	C (0.20 < C ≦ 0.40)	< 250	< 250	250 to 500		250 to 500		< 250	
COc1ccc(-n2nc(C(C)(F)F)cc2NC(=O)Nc2cccc(Oc3ncnc4cc(OC)c(OC)cc34)c2)cc1 [Ex 315, 1-(3-(1,1-difluoroethyl)-1-(4-methoxyphenyl)-1H-pyrazol-5-yl)-3-(3-(6,7-dimethoxyquinazolin-4-yloxy)phenyl)urea]	D (D > 0.40)		> 1000	< 250		< 250	500 to 1000	< 250	
COc1cc2ncnc(Oc3cccc(NC(=O)Nc4cc(C(C)(C)C)nn4-c4ccc(=O)[nH]c4)c3)c2cc1OC [Ex 317, 1-(3-tert-butyl-1-(6-oxo-1,6-dihydropyridin-3-yl)-1H-pyrazol-5-yl)-3-(3-(6,7-dimethoxyquinazolin-4-yloxy)phenyl)urea]	D (D > 0.40)		> 1000	> 1000		> 1000	500 to 1000	< 250	
COc1cc2ncnc(Oc3cccc(NC(=O)Nc4cc(C(C)(C)C)nn4-c4ccnc(C)c4)c3)c2cc1OC [Ex 320, 1-(3-tert-butyl-1-(2-methylpyridin-4-yl)-1H-pyrazol-5-yl)-3-(3-(6,7-dimethoxyquinazolin-4-yloxy)phenyl)urea]	D (D > 0.40)	> 1000	> 1000	< 250				< 250	
CCn1nc(C(C)(C)C)cc1NC(=O)Nc1cccc(Sc2ncnc3cc(OC)c(OC)cc23)c1 [Ex 321, 1-(3-tert-butyl-1-ethyl-1H-pyrazol-5-yl)-3-(3-(6,7-dimethoxyquinazolin-4-ylthio)phenyl)urea]	C (0.20 < C ≦ 0.40)	< 250		250 to 500		500 to 1000		< 250	250 to 500
COc1cc2ncnc(Oc3cccc(NC(=O)Nc4cc(C(C)(C)C)nn4C4CCCCC4)c3)c2cc1OC [Ex 330, 1-(3-tert-butyl-1-cyclohexyl-1H-pyrazol-5-yl)-3-(3-(6,7-dimethoxyquinazolin-4-yloxy)phenyl)urea]	C (0.20 < C ≦ 0.40)	> 1000	> 1000	> 1000		> 1000		< 250	
COc1cc2ncnc(Oc3cccc(NC(=O)Nc4cc(C(C)(C)C)nn4-c4ccccc4Cl)c3)c2cc1OC [Ex 340, 1-(3-tert-butyl-1-(2-chlorophenyl)-1H-pyrazol-5-yl)-3-(3-(6,7-dimethoxyquinazolin-4-yloxy)phenyl)urea]	D (D > 0.40)	> 1000	> 1000	< 250	250 to 500				
COc1cc2ncnc(Sc3cccc(NC(=O)Nc4cc(C(C)(C)C)nn4-c4ccccn4)c3)c2cc1OC [Ex 345, 1-(3-tert-butyl-1-(pyridin-2-yl)-1H-pyrazol-5-yl)-3-(3-(6,7-dimethoxyquinazolin-4-ylthio)phenyl)urea]	B (0.10 < B ≦ 0.20)	> 1000	> 1000	500 to 1000		> 1000		> 1000	
COc1ccc(-n2nc(C(C)C)cc2NC(=O)Nc2cccc(Oc3ncnc4cc(OC)c(OC)cc34)c2)cc1 [Ex 348, 1-(3-(6,7-dimethoxyquinazolin-4-yloxy)phenyl)-3-(3-isopropyl-1-(4-methoxyphenyl)-1H-pyrazol-5-yl)urea]	D (D > 0.40)		> 1000	< 250		< 250	500 to 1000	< 250	
COc1ccc(-n2nc(C(C)C)cc2NC(=O)Nc2cccc(Sc3ncnc4cc(OC)c(OC)cc34)c2)cc1 [Ex 349, 1-(3-(6,7-dimethoxyquinazolin-4-ylthio)phenyl)-3-(3-isopropyl-1-(4-methoxyphenyl)-1H-pyrazol-5-yl)urea]	C (0.20 < C ≦ 0.40)		> 1000	< 250		< 250	500 to 1000	< 250	
COc1cc2ncnc(Oc3cccc(NC(=O)Nc4cc(C(C)C)nn4-c4cccnc4)c3)c2cc1OC [Ex 350, 1-(3-(6,7-dimethoxyquinazolin-4-yloxy)phenyl)-3-(3-isopropyl-1-(pyridin-3-yl)-1H-pyrazol-5-yl)urea]	D (D > 0.40)	< 250	< 250	250 to 500		250 to 500		< 250	
COc1cc2ncnc(Sc3cccc(NC(=O)Nc4cc(C(C)C)nn4-c4cccnc4)c3)c2cc1OC [Ex 351, 1-(3-(6,7-dimethoxyquinazolin-4-ylthio)phenyl)-3-(3-isopropyl-1-(pyridin-3-yl)-1H-pyrazol-5-yl)urea]	C (0.20 < C ≦ 0.40)	< 250		< 250		250 to 500		< 250	500 to 1000
CCc1cc(NC(=O)Nc2cccc(Oc3ncnc4cc(OC)c(OC)cc34)c2)n(-c2ccccc2)n1 [Ex 352, 1-(3-(6,7-dimethoxyquinazolin-4-yloxy)phenyl)-3-(3-ethyl-1-phenyl-1H-pyrazol-5-yl)urea]	C (0.20 < C ≦ 0.40)	< 250	< 250	500 to 1000		250 to 500		< 250	
COc1cc2ncnc(Oc3cccc(NC(=O)Nc4cc(C5CC5)nn4-c4ccccc4)c3)c2cc1OC [Ex 353, 1-(3-cyclopropyl-1-phenyl-1H-pyrazol-5-yl)-3-(3-(6,7-dimethoxyquinazolin-4-yloxy)phenyl)urea]	C (0.20 < C ≦ 0.40)	< 250		250 to 500		250 to 500		< 250	250 to 500
COc1cc2ncnc(Sc3cccc(NC(=O)Nc4cc(C5CC5)nn4-c4ccccc4)c3)c2cc1OC [Ex 354, 1-(3-cyclopropyl-1-phenyl-1H-pyrazol-5-yl)-3-(3-(6,7-dimethoxyquinazolin-4-ylthio)phenyl)urea]	C (0.20 < C ≦ 0.40)	< 250	< 250	250 to 500		250 to 500		< 250	
